pIC50, pKi: −log10 of the molar value. Starred links: 1 amine or outer side, 2 acyl side, 3 side chain; linkers in the order of their positions; H or OH if unused. Non-standard residues stand in square brackets, D forms with d. Residues, ends and D or L forms follow the SMILES beside them. ξ: configuration not given here. *: point of attachment. X1 = O=C(O)C[C@@H](C(=O)[*:2])N(c1ccc([N+](=O)[O-])c2nonc12)[*:1]; NBD = O=[N+]([O-])c1ccc(*)c2nonc12; Nle = CCCC[C@H](N)C(=O)O; ξDab = NCCC(N)C(=O)O; Bz = O=C(c1ccccc1)*
target: C-X-C chemokine receptor type 4 (Homo sapiens, UniProt P61073); experiment: Displacement of [125I]SDF1 from CXCR4 (unknown origin) expressed in CHO cells; assay type: cell-based
Sequence (P61073 whole entry): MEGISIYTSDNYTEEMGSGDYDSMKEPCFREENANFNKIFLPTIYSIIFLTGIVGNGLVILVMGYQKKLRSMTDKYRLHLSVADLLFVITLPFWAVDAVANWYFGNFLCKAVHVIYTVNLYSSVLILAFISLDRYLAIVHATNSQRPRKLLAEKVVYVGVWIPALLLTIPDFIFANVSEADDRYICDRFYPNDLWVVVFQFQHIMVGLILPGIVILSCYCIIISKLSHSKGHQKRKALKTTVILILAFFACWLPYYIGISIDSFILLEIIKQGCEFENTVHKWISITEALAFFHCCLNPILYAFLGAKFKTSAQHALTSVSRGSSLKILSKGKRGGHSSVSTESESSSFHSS

SMILES	pIC50
CC(=O)N[C@@H](CCCNC(=N)N)C(=O)N[C@@H](CCCNC(=N)N)C(=O)N[C@@H](Cc1cccc2ccccc12)C(=O)N[C@H]1CSSC[C@@H](C(=O)N[C@@H](CCCNC(=N)N)C(N)=O)NC(=O)[C@H](CCCNC(N)=O)NC(=O)[C@H](CCCNC(=N)N)NC(=O)[C@H](Cc2ccc(O)cc2)NC(=O)[C@@H]2CCCN2C(=O)[C@@H](CCCCN)NC(=O)[C@H](CCCNC(=N)N)NC(=O)[C@H](CCCNC(N)=O)NC(=O)[C@H](Cc2ccc(O)cc2)NC1=O	8.28
CC(=O)N[C@@H](CCCNC(=N)N)C(=O)N[C@@H](CCCNC(=N)N)C(=O)N[C@@H](Cc1cccc2ccccc12)C(=O)N[C@H]1CSSC[C@@H](C(=O)N[C@@H](CCCNC(=N)N)C(N)=O)NC(=O)[C@H](CCCNC(N)=O)NC(=O)[C@H](CCCNC(=N)N)NC(=O)[C@H](Cc2ccc(O)cc2)NC(=O)[C@@H]2CCCN2C(=O)[C@@H](CCC(=O)O)NC(=O)[C@H](CCCNC(=N)N)NC(=O)[C@H](CCCNC(N)=O)NC(=O)[C@H](Cc2ccc(O)cc2)NC1=O	8.17

target: T1, Substance-K receptor (Homo sapiens, UniProt P21452); experiment: Displacement of [3H]GR100679 from NK2 receptor (unknown origin) expressed in CHO/T cells; assay type: cell-based
T1 sequence (P21452 whole entry): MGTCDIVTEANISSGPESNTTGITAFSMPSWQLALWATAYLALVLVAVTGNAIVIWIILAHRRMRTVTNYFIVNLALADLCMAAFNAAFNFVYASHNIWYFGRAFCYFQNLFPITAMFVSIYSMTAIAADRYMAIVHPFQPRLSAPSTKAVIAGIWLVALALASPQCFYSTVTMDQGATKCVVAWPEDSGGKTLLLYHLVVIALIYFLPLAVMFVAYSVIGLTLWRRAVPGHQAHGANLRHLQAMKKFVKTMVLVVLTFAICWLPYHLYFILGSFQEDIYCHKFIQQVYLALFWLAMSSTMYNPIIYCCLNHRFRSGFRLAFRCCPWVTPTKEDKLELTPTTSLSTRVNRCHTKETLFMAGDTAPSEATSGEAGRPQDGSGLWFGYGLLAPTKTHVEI

SMILES	pKi
CCCC[C@H](NC(=O)[C@@H]1CCCN1C(=O)[C@H]1CCCN1C(=O)[C@H](Cc1ccccc1)NC(=O)[C@@H](Cc1c[nH]c2ccccc12)NC(=O)[C@H](C)NC(=O)[C@H](CCCNc1ccc([N+](=O)[O-])c2nonc12)NC(=O)c1ccccc1)C(N)=O	8.84
CCCC[C@H](NC(=O)[C@@H]1CCCN1C(=O)[C@H]1CCCN1C(=O)[C@H](Cc1ccccc1)NC(=O)[C@@H](Cc1c[nH]c2ccccc12)NC(=O)[C@H](C)NC(=O)[C@H](CCCCNCC(=O)Nc1ccc([N+](=O)[O-])c2nonc12)NC(=O)c1ccccc1)C(N)=O	8.80
CCCC[C@H](NC(=O)[C@@H]1CCCN1C(=O)[C@H]1CCCN1C(=O)[C@H](Cc1ccccc1)NC(=O)[C@@H](Cc1c[nH]c2ccccc12)NC(=O)[C@H](C)NC(=O)C(CCNc1ccc([N+](=O)[O-])c2nonc12)NC(=O)c1ccccc1)C(N)=O (some centres undefined)	8.87
CCCC[C@H](NC(=O)[C@H](CC(C)C)NC(=O)CNC(=O)[C@@H](NC(=O)[C@H](Cc1ccccc1)NC(=O)[C@H](CO)NC(=O)[C@H](CC(=O)O)Nc1ccc([N+](=O)[O-])c2nonc12)C(C)C)C(N)=O (H-[X1]SFVGL[Nle]-NH2)	8.08
CSCC[C@H](NC(=O)[C@H](CC(C)C)NC(=O)CNC(=O)[C@@H](NC(=O)[C@H](Cc1ccccc1)NC(=O)[C@H](CO)NC(=O)[C@H](CC(=O)O)NC(=O)[C@@H](NC(=O)[C@H](CCCCN)NC(=O)[C@H](Cc1cnc[nH]1)Nc1ccc([N+](=O)[O-])c2nonc12)[C@@H](C)O)C(C)C)C(N)=O	8.23
CCCC[C@H](NC(=O)[C@@H]1CCCN1C(=O)[C@H]1CCCN1C(=O)[C@H](Cc1ccccc1)NC(=O)[C@@H](Cc1c[nH]c2ccccc12)NC(=O)[C@H](C)NC(=O)[C@H](C)NC(=O)c1ccccc1)C(N)=O (Bz-AA[dW]F[dP]P[Nle]-NH2)	9.81
CCCC[C@H](NC(=O)[C@H](CC(C)C)NC(=O)CNC(=O)C(CCNc1ccc([N+](=O)[O-])c2nonc12)NC(=O)[C@H](Cc1ccccc1)NC(=O)[C@H](CO)NC(=O)[C@H](CC(=O)O)NC(C)=O)C(N)=O (some centres undefined) (Ac-DSF[ξDab](NBD)GL[Nle]-NH2)	5.71

— ChEMBL document CHEMBL3351524, “Toward fluorescent probes for G-protein-coupled receptors (GPCRs)” (J Med Chem, 2014)
